Measurements taken from patent publication US7358359B2, “Antibacterial agents” (University of Washington, priority 2003, dated 2008).
In brackets after ≈: the same amount, converted by molar mass. Where two headings read alike, the source gives them in different places.

Key:
Assay type in all cases: cell-based
Klebsiella oxytoca = assay: MIC vs enteric organisms: Klebsiella oxytoca; details: K. oxy., MIC key class
Procedure: (§1) Bacterial isolates were cultivated from −70° C. frozen stocks by two consecutive overnight passages at 35° C. in ambient air on 5% blood agar (Remel, Lenexa, Kans.). Clinical isolates tested were from a collection composed of isolates collected during clinical trials and recent clinical isolates obtained from various geographically diverse hospitals in the US. Quality control and primary panel strains were from the American Type Culture Collection (ATCC; Rockville, Md.), with the exception of P. aeruginosa PAO200, a strain with a deletion of the mexABoprM genes that was received from Dr. H. Schweizer.
(§2) Minimum Inhibitory Concentrations (MICs) were determined by the broth microdilution method in accordance with the National Committee for Clinical Laboratory Standards (NCCLS) guidelines. In brief, organism suspensions were are adjusted to a 0.5 McFarland standard to yield a final inoculum between 3×10^5 and 7×10^5 colony-forming units (CFU)/mL. Drug dilutions and inocula were made in sterile, cation adjusted Mueller-Hinton Broth (Remel). An inoculum volume of 100 μl was added to wells containing 100 μl of broth with 2-fold serial dilutions of drug. All inoculated microdilution trays were incubated in ambient air at 35° C. for 18-24 hours. Following incubation, the lowest concentration of the drug that prevented visible growth was recorded as the MIC.

Proteus mirabilis = assay: MIC vs enteric organisms: Proteus mirabilis; details: P. mir., MIC key class
Procedure: as §1, §2

[1] = test system: Pseudomonas aeruginosa cystic fibrosis isolate 3232; assay: MIC vs cystic fibrosis isolate of P. aeruginosa 3232 (Ceftaz. R); details: strain 3232, Ceftaz. R, LpxC inhibitors, MIC key class
[2] = test system: Pseudomonas aeruginosa cystic fibrosis isolate 3236; assay: MIC vs cystic fibrosis isolate of P. aeruginosa 3236 (sensitive to most antibacterials); details: strain 3236, Sensitive, LpxC inhibitors, MIC key class
Procedure: as §1, §2

Enterobacter cloacae = assay: MIC vs enteric organisms: Enterobacter cloacae; details: E. clo., MIC key class
Procedure: as §1, §2

Escherichia coli = assay: MIC vs enteric organisms: Escherichia coli clinical isolates; details: Escherichia coli, MIC key class, read-out: MIC
Procedure: as §1, §2

[3] = test system: P. aeruginosa PAO200 mexAB; assay: MIC broth microdilution, standard panel: P. aeruginosa PAO200 mexAB; details: Pseudomonas aeruginosa, PAO200MEXAB, read-out: MIC P. aeruginosa PAO200 mexAB
Procedure: as §1, with “Schweizer. […] Strain Z61 (ATCC 35151) is also hypersusceptible to antibacterials. It is thought that the hypersusceptibility of this strain is the result of increased permeability of its outer membrane (Angus B L et al, Antimicrobial Agents and Chemotherapy 1982 21,299-309: Outer membrane permeability in Pseudomonas aeruginosa: Comparison of a wild-type with an antibacterial-supersusceptible mutant).” for “Schweizer.”
as §2, with “MIC. Performance of the assay was monitored by the use of laboratory quality-control strains against tobramycin, that has a defined MIC spectrum, in accordance with NCCLS guidelines.” for “MIC.”

[4] = test system: Acinetobacter calcoaceticus; assay: MIC vs non-fermenting organisms: Acinetobacter calcoaceticus; details: Acinet. calc., MIC key class
Procedure: as §1, §2

P. aeruginosa 27853 = assay: MIC broth microdilution, standard panel: P. aeruginosa 27853; details: Pseudomonas aeruginosa, standard panel of organisms
Procedure: as §1, with “Schweizer. […] Strain Z61 (ATCC 35151) is also hypersusceptible to antibacterials. It is thought that the hypersusceptibility of this strain is the result of increased permeability of its outer membrane (Angus B L et al, Antimicrobial Agents and Chemotherapy 1982 21,299-309: Outer membrane permeability in Pseudomonas aeruginosa: Comparison of a wild-type with an antibacterial-supersusceptible mutant).” for “Schweizer.”
as §2, with “MIC. Performance of the assay was monitored by the use of laboratory quality-control strains against tobramycin, that has a defined MIC spectrum, in accordance with NCCLS guidelines.” for “MIC.”

Enterobacter aerogenes = assay: MIC vs enteric organisms: Enterobacter aerogenes; details: Klebsiella aerogenes; E. aer.; MIC key class
Procedure: as §1, §2

Alcaligenes xylosoxidans = assay: MIC vs non-fermenting organisms: Alcaligenes xylosoxidans; details: Achromobacter xylosoxidans; Alcal. xyl; MIC key class
Procedure: as §1, §2

Compound	MIC (Klebsiella oxytoca) [µg/mL]	MIC (Proteus mirabilis) [µg/mL]	MIC [1] [µg/mL]	MIC [2] [µg/mL]	MIC (Enterobacter cloacae) [µg/mL]	MIC (Escherichia coli; E. coli 1619) [µg/mL]	MIC (Escherichia coli; E. coli 2788) [µg/mL]	MIC [3] [µg/mL]	MIC [4] [µg/mL]	MIC (P. aeruginosa 27853) [µg/mL]	MIC (Enterobacter aerogenes) [µg/mL]	MIC (Alcaligenes xylosoxidans) [µg/mL]
C[C@@H](O)[C@H](NC(=O)c1ccc(C#Cc2ccccc2)cc1)C(=O)NO [Example 12, N-(1-(N-hydroxycarbamoyl)(1S,2R)-2-hydroxypropyl)[4-(2-phenylethynyl)phenyl]carboxamide]	< 6.25	< 6.25	< 6.25	< 6.25	< 6.25	< 6.25	< 6.25	< 6.25	< 6.25	< 6.25	> 50	< 6.25
C[C@@H](O)[C@H](NC(=O)c1ccc(C#CC#Cc2ccc(NC(=O)CNc3ccccc3)cc2)cc1)C(=O)NO [Example 777, N-{(1S,2R)-2-hydroxy-1-[(hydroxyamino)carbonyl]propyl}-4-[4-(4-{[(phenylamino)acetyl]amino}phenyl)buta-1,3-diynyl]benzamide]	< 6.25	< 6.25	< 6.25	< 6.25	< 6.25	< 6.25	< 6.25	< 6.25	< 6.25	< 6.25	6.25 to 50 (≈ 12.2 to 97.9 µM)	6.25 to 50 (≈ 12.2 to 97.9 µM)
CCc1ccc(-c2ccc(C(=O)N[C@H](C(=O)NO)[C@@H](C)N)cc2)cc1 [Example 779, N-{(1S,2R)-2-amino-1-[(hydroxyamino)carbonyl]propyl)-4′-ethyl-1,1′-biphenyl-4-carboxamide]	6.25 to 50 (≈ 18.3 to 146 µM)	6.25 to 50 (≈ 18.3 to 146 µM)	< 6.25	< 6.25	< 6.25	< 6.25	< 6.25	< 6.25	> 50	< 6.25	> 50	< 6.25
C[C@@H](N)[C@H](NC(=O)c1ccc(C#Cc2ccccc2)cc1)C(=O)NO [Example 13]	< 6.25	< 6.25	< 6.25	< 6.25	< 6.25	< 6.25	< 6.25	< 6.25	> 50	< 6.25	> 50	< 6.25
NC[C@H](NC(=O)c1ccc(C#Cc2ccc(NC(=O)CNC3CC3)cc2)cc1)C(=O)NO [Example 516, N-[(1S)-1-(aminomethyl)-2-(hydroxyamino)-2-oxoethyl]-4-[(4-{[(cyclopropylamino)acetyl]amino}phenyl)ethynyl]benzamide]	> 50	> 50	< 6.25	< 6.25	6.25 to 50 (≈ 14.4 to 115 µM)	< 6.25	6.25 to 50 (≈ 14.4 to 115 µM)	< 6.25	> 50	< 6.25	> 50	> 50
CCc1ccc(-c2ccc(C(=O)N[C@@H](CN)C(=O)NO)cc2)cc1 [Example 280, N-[(1S)-1-(aminomethyl)-2-(hydroxyamino)-2-oxoethyl]-4′-ethyl-1,1-biphenyl-4-carboxamide]	> 50	6.25 to 50 (≈ 19.1 to 153 µM)	< 6.25	< 6.25	< 6.25	< 6.25	< 6.25	< 6.25	> 50	< 6.25	> 50	6.25 to 50 (≈ 19.1 to 153 µM)
C[C@@H](O)[C@H](NC(=O)c1ccc(C#CC#Cc2ccccc2)cc1)C(=O)NO [Example 19, N-(1-(N-hydroxycarbamoyl)(1S,2R)-2-hydroxypropyl)[4-(4-phenylbuta-1,3-diynyl)phenyl]carboxamide]	< 6.25	< 6.25	< 6.25	< 6.25	< 6.25	< 6.25	< 6.25	< 6.25	< 6.25	< 6.25	< 6.25	6.25 to 50 (≈ 17.2 to 138 µM)
C[C@@H](O)[C@H](NC(=O)c1ccc(C#CC#Cc2ccc(NC(=O)CNc3ccccn3)cc2)cc1)C(=O)NO [Example 801, N-{(1S,2R)-2-hydroxy-1-[(hydroxyamino)carbonyl]propyl}-4-[4-(4-{[(pyridin-2-ylamino)acetyl]amino}phenyl)buta-1,3-diynyl]benzamide]	< 6.25	< 6.25	< 6.25	< 6.25	< 6.25	< 6.25	< 6.25	< 6.25	6.25 to 50 (≈ 12.2 to 97.7 µM)	< 6.25	6.25 to 50 (≈ 12.2 to 97.7 µM)	> 50
NC[C@H](NC(=O)c1ccc(C#CC#Cc2ccccc2)cc1)C(=O)NO [Example 481, N-[(1S)-1-(aminomethyl)-2-(hydroxyamino)-2-oxoethyl]-4-(4-phenylbuta-1,3-diynyl)benzamide]	< 6.25	< 6.25	< 6.25	< 6.25	< 6.25	< 6.25	< 6.25	< 6.25	> 50	< 6.25	> 50	> 50
C[C@@H](O)[C@H](NC(=O)c1ccc(-c2ccc(Br)cc2)cc1)C(=O)NO [Example 315, 4′-bromo-N-{(1S,2R)-2-hydroxy-1-[(hydroxyamino)carbonyl]propyl}-1,1′-biphenyl-4-carboxamide]	> 50	> 50	< 6.25	< 6.25	< 6.25	< 6.25	< 6.25	< 6.25	> 50	< 6.25	> 50	6.25 to 50 (≈ 15.9 to 127 µM)
